IC50 data for 3 molecules are collected here from ChEMBL document CHEMBL1921769, “Synthesis and docking study of 2-phenylaminopyrimidine Abl tyrosine kinase inhibitors” (Bioorg Med Chem Lett, 2011).

SMILES strings stand for the structures.

Tyrosine-protein kinase ABL1, sequence (P00519 whole entry): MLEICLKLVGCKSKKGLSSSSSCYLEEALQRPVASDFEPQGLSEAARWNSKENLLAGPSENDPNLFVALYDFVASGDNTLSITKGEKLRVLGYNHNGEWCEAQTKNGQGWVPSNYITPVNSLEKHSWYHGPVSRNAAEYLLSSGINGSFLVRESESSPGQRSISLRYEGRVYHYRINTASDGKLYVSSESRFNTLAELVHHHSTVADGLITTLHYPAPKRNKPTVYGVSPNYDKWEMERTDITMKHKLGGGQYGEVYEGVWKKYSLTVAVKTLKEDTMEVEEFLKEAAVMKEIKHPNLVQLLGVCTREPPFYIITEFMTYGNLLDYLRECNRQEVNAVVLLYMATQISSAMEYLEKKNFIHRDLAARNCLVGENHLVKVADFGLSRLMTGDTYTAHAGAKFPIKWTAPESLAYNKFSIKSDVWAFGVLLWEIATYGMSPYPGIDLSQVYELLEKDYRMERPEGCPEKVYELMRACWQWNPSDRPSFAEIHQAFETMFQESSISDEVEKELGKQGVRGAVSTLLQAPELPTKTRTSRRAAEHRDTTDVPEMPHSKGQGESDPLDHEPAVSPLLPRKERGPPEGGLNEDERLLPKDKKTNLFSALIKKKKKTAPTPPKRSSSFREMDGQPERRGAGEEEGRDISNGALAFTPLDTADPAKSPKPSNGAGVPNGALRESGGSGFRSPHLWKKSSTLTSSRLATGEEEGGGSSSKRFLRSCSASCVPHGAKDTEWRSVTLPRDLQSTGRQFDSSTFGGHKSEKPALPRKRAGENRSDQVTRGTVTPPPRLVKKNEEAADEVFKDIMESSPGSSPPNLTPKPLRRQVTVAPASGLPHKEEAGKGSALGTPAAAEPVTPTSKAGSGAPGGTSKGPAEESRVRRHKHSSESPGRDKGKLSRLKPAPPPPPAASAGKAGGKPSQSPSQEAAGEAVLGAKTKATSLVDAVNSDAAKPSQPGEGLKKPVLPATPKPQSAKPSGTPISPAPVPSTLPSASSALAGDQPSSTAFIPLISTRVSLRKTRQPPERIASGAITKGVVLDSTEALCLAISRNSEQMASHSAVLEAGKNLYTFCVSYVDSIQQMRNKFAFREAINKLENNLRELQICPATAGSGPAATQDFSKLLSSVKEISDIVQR

The assay concerns the target Tyrosine-protein kinase ABL1 (Homo sapiens, UniProt P00519). Kind of assay: Inhibition of Abl using DAIpYAAPFAKKK phosphopeptide as substrate by MALDI-MS analysis.
For the molecule `Cc1ccc(NC(=O)c2ccc(N)c(N)c2)cc1Nc1nccc(-c2cccnc2)n1`, the IC50 was over 25 µM.

In the case of `CSc1cccc(C(=O)Nc2ccc(C)c(Nc3nccc(-c4cccnc4)n3)c2)c1`, the IC50 was determined as 1.1 µM. This counts as single-digit micromolar.

`Cc1ccc(NC(=O)c2ccccc2)cc1Nc1nccc(-c2cccnc2)n1`: the half-inhibitory concentration (IC50) worked out at 12.7 µM.

Usually IC50 stands for the concentration needed to halve the response being measured.
